Assay [1] has as its system CML (K562) and AML cell lines (KG1A, MV4-11, Molm13, NB4, OCI and HL60). The assay can be described thus: Uptake in AML and CML cell lines, Cy3 by flow cytometry. The following applies: 4 hours. The assay is classed as cell-based, human. As to the method: FIGS. 3A-3G are flow cytometry histograms showing results of CpG-anti-miR-126 uptake in AML and CML cell lines. Cells were cultured with miR126-inhibitor-Cy3 (Cy3-200 nM0, human CD45 (Ab-200 nM) or Transferrin (TF-200 nM)-conjugated nanoparticles (NP) containing antagomiR-126-Cy3, CpG-miR126 inhibitor-Cy3 (CpG-Cy3-200 nM and 500 nM) for 4 hours, then uptake was analyzed by measuring Cy3 expression in these cells by flow cytometry. FIG. 3A is a histogram showing uptake in K562 cells. FIG. 3B is a histogram showing uptake in KG1A AML cells. FIG. 3C is a histogram showing uptake in MV4-11 AML cells. FIG. 3D is a histogram showing uptake in Molm13 AML cells. FIG. 3E is a histogram showing uptake in NB4 AML cells. FIG. 3F is a histogram showing uptake in OCI AML cells. FIG. 3G is a histogram showing uptake in HL60 AML cells.
CML (K562) (FIG. 3A) and AML cell lines (KG1A, MV4-11, Molm13, NB4, OCI and HL60) (FIGS. 3B-3G) were cultured with anti-miR126 inhibitor-Cy3 (Cy3-200 nM) alone, human CD45 (Ab-200 nM) or Transferrin (TF-200 nM)-conjugated nanoparticles (NP) containing anti-miR126-Cy3 or unformulated CpG-anti-miR126 inhibitor—Cy3 in two concentrations (200 nM and 500 nM) for 4 hours, the uptake was analyzed by measuring Cy3 expression in these cells by flow cytometry.
For orientation: A flow cytometer gives signals particle by particle.

Assay [2] deals with CML cells in SCLtTA/BCR-ABL mice. The assay can be described thus: In vivo treatment of SCLtTA/BCR-ABL mice. Set-up: species or system mouse. The following applies: 3 weeks, compared with NIL+SCR. As to the method:
SCLtTA/BCR-ABL mice were treated with CpG-miR-126 inhibitor (5 mg/kg, every other day, iv injection), SCR (5 mg/kg, every other day, iv injection), NIL (50 mg/kg, daily by garage)+SCR, NIL+miR-126 inhibitor for 3 weeks and then the remaining CML cells in the PB (FIG. 13A), BM (FIG. 13C) and spleen (FIG. 13D) were analyzed.
FIGS. 14A-D are scatter plots showing reduced CML LSK and LSC observed in the bone marrow (BM) (FIGS. 14A, 14C) and spleen (FIGS. 14B, 14D) of the mice treated with NIL+miR126 inhibitor compared with the mice treated with NIL+SCR. SCLtTA/BCR-ABL mice were treated with CpG-miR-126 inhibitor, SCR, NIL+SCR, NIL+miR-126 inhibitor for 3 weeks and then the remaining CML LSK primitive cells and LSC in the BM and spleen were analyzed.
SCLtTA/BCR-ABL mice were treated with CpG-miR-126 inhibitor (5 mg/kg, every other day, iv injection), SCR (5 mg/kg, every other day, iv injection), NIL (50 mg/kg, daily by garage)+SCR, NIL+miR-126 inhibitor for 3 weeks and then the remaining CML cells in the PB, BM and spleen were analyzed. […] The effect of CpG-anti-miR-126 on growth of primary AML LSC and therapeutic response in vivo is still ongoing. These observations indicate that blocking of miR-126 by a myeloid cell-specific CpG-anti-miR-126 ODN inhibitor, among other compounds of the present disclosure, is very effective, and therefore represents a novel therapeutic method targeting miRNA in leukemia and other types of cancer disclosed herein.

Assay [3] has as its system CML CD34+, CD34+CD38+ committed and CD34+CD38− primitive progenitors. The assay can be described thus: Apoptosis of CML progenitors by Annexin V/DAPI staining. Type of assay: cell-based, human. The following applies: 500 nM combined with NIL 5 uM, 72 hours, compared with CpG-scramble and NIL. The procedure:
CML CD34+, CD34+CD38+ committed and CD34+CD38− primitive progenitors were cultured with CpG-scramble RNA (500 nM), CpG-miR126 inhibitor (500 nM), CpG-scramble RNA (500 nM)+Nilotinib (5 μM), and CpG-miR126 inhibitor (500 nM)+NIL (5 μM) for 72 hours and then apoptosis was analyzed by Annexin V/DAPI staining.
(§1) CML CD34+, CD34+CD38+ committed and CD34+CD38− primitive progenitors were cultured with CpG-scramble RNA (500 nM), CpG-anti-miR126 inhibitor (500 nM), CpG-scramble RNA (500 nM)+Nilotinib (NIL, 5 uM), and CpG-anti-miR126 inhibitor (500 nM)+NIL (5 uM) for 72 hours and then cell cycling and apoptosis were analyzed by EDU/DAPi and Annexin V/DAPi staining.

The subject of assay [4] is Mouse CML leukemia stem cells (LSC, Lin-Sca-1+c-kit+Fit3-CD150+CD48-). The assay can be described thus: Apoptosis and cell growth of mouse CML leukemia stem cells. The assay is classed as cell-based. The following applies: combined with NIL, compared with CpG-SCR+NIL. As to the method:
Mouse CML leukemia stem cells (LSC, Lin-Sca-1+c-kit+Fit3-CD150+CD48-) were sorted and treated with CpG-anti-miR-126 inhibitor or CpG-SCR (500 nM) for 48 hours, then furthered treated with miR126 inhibitor+NIL or SCR+NIL for 72 hours, then apoptosis and cell growth were measured.

The next assay relates to miR126. The assay can be described thus: miR126 expression in CML CD34+CD38+ committed and CD34+CD38- primitive progenitors by q-RT-PCR. The assay is classed as cell-based, human. The following applies: 500 nM. The procedure: CML CD34+CD38+ committed and CD34+CD38− primitive progenitors were cultured with CpG-scramble RNA (500 nM) or CpG-miR126 inhibitor (500 nM) for 36 hours and then miR126 and RNU44 (control) expression in these cells were analyzed by q-RT-PCR. The miR126 expression levels were normalized to RNU44 and calculated by using the comparative 2^−ΔΔCt method.
as §1

The mark [5] stands for this setting: 5 mg/kg every other day iv + NIL 50 mg/kg daily.

In the case of “5′ G*G*T GCA TCG ATG CAGG*G*G* G*G (SEQ ID NO: 1) xxxxx mCmGmC mAmUmU mAmUmU mAmCmU mCmAmC mGmGmU mAmCmG mA (SEQ ID NO: 17) 3′ [CpG-anti-miR126]”, in assay [1] (200 nM and 500 nM, no transfection reagents), the “internalization (Cy3 uptake)” value was “quickly and dose-dependently internalized”. In addition, the “level of internalization compared with other oligonucleotides including NP-formulated anti-miR126 inhibitor” value in assay [1] (absence of any transfection reagents) was “exceeded that of all other oligonucleotides”. Further, in assay [2] (setting [5]), the “CML white blood cells in the PB” value is on record as “Reduced CML white blood cells” and the spleen weight entry is “Reduced spleen weight”. Also, in assay [2] (with NIL), the “CML LSK in the BM and spleen” value is listed as “Reduced”; the “CML LTHSC in the BM and spleen” value was “Reduced”; the “CML cells in the BM and spleen” value is on record as “Reduced”. The apoptosis entry in assay [3] is on record as “Increased apoptosis”. In assay [4], the “apoptosis of LSC” value is listed as “significantly increased apoptosis” and the “cell growth of LSC” value is “significant reduction of cell growth”. Also, the “reduction of miR126 expression” value with miR126 is listed as “More than 90%”.
